Reference: patent US8772480B2, “Inhibitors of PI3 kinase and/or mTOR” (priority 2009, dated 2014)

Columns and labels:
[1] = target: ProfilerPro Kinase Selectivity Assay Kit kinases (Homo sapiens, UniProt O00141); assay type: biochemical; details: SGK1; 1 μM compound concentration
Procedure: (§1) Compounds were profiled using a LabChip® EZ Reader II platform and a ProfilerPro Kinase Selectivity Assay Kit (Caliper Lifesciences Inc., Hopkinton, Mass.). Compounds were tested at a concentration of 1 M in duplicate, with mean data reported as percent of control (POC).

[2] = target: ProfilerPro Kinase Selectivity Assay Kit kinases (Homo sapiens, UniProt O14965); assay type: biochemical; details: AURORA A; 1 μM compound concentration
Procedure: as §1

[3] = target: ProfilerPro Kinase Selectivity Assay Kit kinases (Homo sapiens, UniProt O75116); assay type: biochemical; details: ROCK2; 1 μM compound concentration
Procedure: as §1

[4] = target: ProfilerPro Kinase Selectivity Assay Kit kinases (Homo sapiens, UniProt O75582); assay type: biochemical; details: MSK1; 1 μM compound concentration
Procedure: as §1

[5] = target: ProfilerPro Kinase Selectivity Assay Kit kinases (Homo sapiens, UniProt O95819); assay type: biochemical; details: HGK; 1 μM compound concentration
Procedure: as §1

[6] = target: ProfilerPro Kinase Selectivity Assay Kit kinases (Homo sapiens, UniProt P00519); assay type: biochemical; details: ABL; 1 μM compound concentration
Procedure: as §1

[7] = target: ProfilerPro Kinase Selectivity Assay Kit kinases (Homo sapiens, UniProt P04049); assay type: biochemical; details: cRAF; 1 μM compound concentration
Procedure: as §1

[8] = target: ProfilerPro Kinase Selectivity Assay Kit kinases (Homo sapiens, UniProt P06239); assay type: biochemical; details: LCK; 1 μM compound concentration
Procedure: as §1

[9] = target: ProfilerPro Kinase Selectivity Assay Kit kinases (Homo sapiens, UniProt P06241); assay type: biochemical; details: FYN; 1 μM compound concentration
Procedure: as §1

[10] = target: ProfilerPro Kinase Selectivity Assay Kit kinases (Homo sapiens, UniProt P07948); assay type: biochemical; details: LYN; 1 μM compound concentration
Procedure: as §1

[11] = target: ProfilerPro Kinase Selectivity Assay Kit kinases (Homo sapiens, UniProt P08069); assay type: biochemical; details: IGF1R; 1 μM compound concentration
Procedure: as §1

[12] = target: ProfilerPro Kinase Selectivity Assay Kit kinases (Homo sapiens, UniProt P11362); assay type: biochemical; details: FGFR1; 1 μM compound concentration
Procedure: as §1

[13] = target: ProfilerPro Kinase Selectivity Assay Kit kinases (Homo sapiens, UniProt P17612); assay type: biochemical; details: PKA alpha; 1 μM compound concentration
Procedure: as §1

[14] = target: ProfilerPro Kinase Selectivity Assay Kit kinases (Homo sapiens, UniProt P23443); assay type: biochemical; details: p70S6K; 1 μM compound concentration
Procedure: as §1

[15] = target: ProfilerPro Kinase Selectivity Assay Kit kinases (Homo sapiens, UniProt P27361); assay type: biochemical; details: ERK1; 1 μM compound concentration
Procedure: as §1

[16] = target: ProfilerPro Kinase Selectivity Assay Kit kinases (Homo sapiens, UniProt P28482); assay type: biochemical; details: ERK2; 1 μM compound concentration
Procedure: as §1

[17] = target: ProfilerPro Kinase Selectivity Assay Kit kinases (Homo sapiens, UniProt P35968); assay type: biochemical; details: KDR; 1 μM compound concentration
Procedure: as §1

[18] = target: ProfilerPro Kinase Selectivity Assay Kit kinases (Homo sapiens, UniProt P36888); assay type: biochemical; details: FLT3; 1 μM compound concentration
Procedure: as §1

[19] = target: ProfilerPro Kinase Selectivity Assay Kit kinases (Homo sapiens, UniProt P43405); assay type: biochemical; details: SYK; 1 μM compound concentration
Procedure: as §1

[20] = target: ProfilerPro Kinase Selectivity Assay Kit kinases (Homo sapiens, UniProt P48730); assay type: biochemical; details: CK1 delta; 1 μM compound concentration
Procedure: as §1

[21] = target: ProfilerPro Kinase Selectivity Assay Kit kinases (Homo sapiens, UniProt P49137); assay type: biochemical; details: MAPKAPK2; 1 μM compound concentration
Procedure: as §1

[22] = target: ProfilerPro Kinase Selectivity Assay Kit kinases (Homo sapiens, UniProt Q06187); assay type: biochemical; details: BTK; 1 μM compound concentration
Procedure: as §1

[23] = target: ProfilerPro Kinase Selectivity Assay Kit kinases (Homo sapiens, UniProt Q13177); assay type: biochemical; details: PAK2; 1 μM compound concentration
Procedure: as §1

[24] = target: ProfilerPro Kinase Selectivity Assay Kit kinases (Homo sapiens, UniProt Q13188); assay type: biochemical; details: MST2; 1 μM compound concentration
Procedure: as §1

[25] = target: ProfilerPro Kinase Selectivity Assay Kit kinases (Homo sapiens, UniProt Q13627); assay type: biochemical; details: DYRK1a; 1 μM compound concentration
Procedure: as §1

[26] = target: ProfilerPro Kinase Selectivity Assay Kit kinases (Homo sapiens, UniProt Q13976); assay type: biochemical; details: PKGa2; 1 μM compound concentration
Procedure: as §1

[27] = target: ProfilerPro Kinase Selectivity Assay Kit kinases (Homo sapiens, UniProt Q16539); assay type: biochemical; details: p38 alpha; 1 μM compound concentration
Procedure: as §1

[28] = target: ProfilerPro Kinase Selectivity Assay Kit kinases (Homo sapiens, UniProt Q16566); assay type: biochemical; details: CAMK4; 1 μM compound concentration
Procedure: as §1

[29] = target: ProfilerPro Kinase Selectivity Assay Kit kinases (Homo sapiens, UniProt Q8IW41); assay type: biochemical; details: PRAK; 1 μM compound concentration
Procedure: as §1

[30] = test system: ProfilerPro Kinase Selectivity Assay Kit kinases; assay type: biochemical; details: 1 μM compound concentration
Procedure: as §1

[31] = target: human mutant B-raf (HuBraf V600E) (Homo sapiens (Human), UniProt P15056, V600E); details: at 10 μM compound concentration; POC = 100 − percent inhibition
Chain of human mutant B-raf (HuBraf V600E) (P15056 whole entry V600E): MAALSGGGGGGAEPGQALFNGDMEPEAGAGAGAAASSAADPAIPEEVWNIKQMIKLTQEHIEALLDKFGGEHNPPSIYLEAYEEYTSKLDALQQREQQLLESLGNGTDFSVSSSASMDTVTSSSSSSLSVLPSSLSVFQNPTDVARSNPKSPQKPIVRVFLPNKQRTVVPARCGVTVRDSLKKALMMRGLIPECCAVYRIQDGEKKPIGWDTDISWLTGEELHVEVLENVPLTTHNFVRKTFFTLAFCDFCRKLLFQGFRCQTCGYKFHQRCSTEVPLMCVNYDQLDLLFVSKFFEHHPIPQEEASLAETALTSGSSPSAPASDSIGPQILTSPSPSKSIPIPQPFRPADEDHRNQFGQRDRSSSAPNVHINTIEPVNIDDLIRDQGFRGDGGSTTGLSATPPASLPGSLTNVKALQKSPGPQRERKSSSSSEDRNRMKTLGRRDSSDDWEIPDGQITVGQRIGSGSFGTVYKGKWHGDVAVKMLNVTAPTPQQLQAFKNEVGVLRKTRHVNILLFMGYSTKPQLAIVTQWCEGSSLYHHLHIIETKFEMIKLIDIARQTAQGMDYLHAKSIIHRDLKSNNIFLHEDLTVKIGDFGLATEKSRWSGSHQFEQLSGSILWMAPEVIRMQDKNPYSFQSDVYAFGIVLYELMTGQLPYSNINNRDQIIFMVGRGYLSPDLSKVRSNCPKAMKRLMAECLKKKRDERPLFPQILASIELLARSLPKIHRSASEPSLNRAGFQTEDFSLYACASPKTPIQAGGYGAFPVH

Chain of ProfilerPro Kinase Selectivity Assay Kit kinases (Homo sapiens, UniProt Q13976) (Q13976 2-671 limits assumed): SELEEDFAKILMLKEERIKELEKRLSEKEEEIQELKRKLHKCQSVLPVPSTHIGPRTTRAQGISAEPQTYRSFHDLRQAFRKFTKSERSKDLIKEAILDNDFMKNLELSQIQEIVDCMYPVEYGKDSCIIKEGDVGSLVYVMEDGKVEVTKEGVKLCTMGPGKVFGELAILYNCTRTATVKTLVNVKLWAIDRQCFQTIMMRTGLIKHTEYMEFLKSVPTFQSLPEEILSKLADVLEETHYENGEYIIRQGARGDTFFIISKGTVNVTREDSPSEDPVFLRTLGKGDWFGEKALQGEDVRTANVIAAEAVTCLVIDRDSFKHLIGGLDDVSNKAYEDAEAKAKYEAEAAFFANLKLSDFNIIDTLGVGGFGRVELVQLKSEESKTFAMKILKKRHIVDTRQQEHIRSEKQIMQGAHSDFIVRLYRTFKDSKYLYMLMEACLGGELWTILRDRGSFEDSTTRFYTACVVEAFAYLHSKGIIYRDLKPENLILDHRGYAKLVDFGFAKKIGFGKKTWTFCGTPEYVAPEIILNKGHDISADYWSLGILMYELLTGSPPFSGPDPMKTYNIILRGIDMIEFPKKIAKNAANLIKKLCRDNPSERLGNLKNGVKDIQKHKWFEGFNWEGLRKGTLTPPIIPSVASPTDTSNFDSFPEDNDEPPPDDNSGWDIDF
Chain of ProfilerPro Kinase Selectivity Assay Kit kinases (Homo sapiens, UniProt P06239) (P06239 2-509 limits assumed): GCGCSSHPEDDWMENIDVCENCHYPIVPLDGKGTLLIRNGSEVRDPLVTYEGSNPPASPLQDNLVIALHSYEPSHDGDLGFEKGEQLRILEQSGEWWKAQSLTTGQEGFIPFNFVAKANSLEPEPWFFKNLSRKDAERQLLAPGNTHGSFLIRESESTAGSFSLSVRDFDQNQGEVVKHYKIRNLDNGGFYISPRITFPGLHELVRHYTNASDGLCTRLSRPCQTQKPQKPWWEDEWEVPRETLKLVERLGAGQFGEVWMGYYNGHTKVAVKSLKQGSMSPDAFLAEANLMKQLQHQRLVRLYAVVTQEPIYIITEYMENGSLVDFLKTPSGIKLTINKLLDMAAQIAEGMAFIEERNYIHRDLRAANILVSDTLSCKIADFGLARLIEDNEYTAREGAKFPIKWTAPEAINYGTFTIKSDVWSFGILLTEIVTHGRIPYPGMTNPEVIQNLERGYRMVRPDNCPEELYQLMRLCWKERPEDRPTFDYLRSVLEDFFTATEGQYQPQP
Chain of ProfilerPro Kinase Selectivity Assay Kit kinases (Homo sapiens, UniProt P06241) (P06241 2-537 limits assumed): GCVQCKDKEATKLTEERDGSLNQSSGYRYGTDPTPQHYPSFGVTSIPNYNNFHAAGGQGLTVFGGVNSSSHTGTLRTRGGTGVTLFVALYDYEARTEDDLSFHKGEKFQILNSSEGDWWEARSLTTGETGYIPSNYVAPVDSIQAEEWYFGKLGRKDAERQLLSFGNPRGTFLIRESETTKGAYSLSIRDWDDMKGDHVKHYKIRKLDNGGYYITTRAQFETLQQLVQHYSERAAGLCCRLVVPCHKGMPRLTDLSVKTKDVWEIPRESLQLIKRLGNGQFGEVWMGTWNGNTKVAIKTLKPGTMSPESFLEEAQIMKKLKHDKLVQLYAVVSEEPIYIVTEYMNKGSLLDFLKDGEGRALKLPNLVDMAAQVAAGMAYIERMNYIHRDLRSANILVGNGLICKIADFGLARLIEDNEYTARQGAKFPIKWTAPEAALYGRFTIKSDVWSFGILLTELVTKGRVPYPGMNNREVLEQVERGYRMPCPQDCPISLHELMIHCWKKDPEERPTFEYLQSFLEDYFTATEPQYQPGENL
Chain of ProfilerPro Kinase Selectivity Assay Kit kinases (Homo sapiens, UniProt O95819) (O95819 2-1239 limits assumed): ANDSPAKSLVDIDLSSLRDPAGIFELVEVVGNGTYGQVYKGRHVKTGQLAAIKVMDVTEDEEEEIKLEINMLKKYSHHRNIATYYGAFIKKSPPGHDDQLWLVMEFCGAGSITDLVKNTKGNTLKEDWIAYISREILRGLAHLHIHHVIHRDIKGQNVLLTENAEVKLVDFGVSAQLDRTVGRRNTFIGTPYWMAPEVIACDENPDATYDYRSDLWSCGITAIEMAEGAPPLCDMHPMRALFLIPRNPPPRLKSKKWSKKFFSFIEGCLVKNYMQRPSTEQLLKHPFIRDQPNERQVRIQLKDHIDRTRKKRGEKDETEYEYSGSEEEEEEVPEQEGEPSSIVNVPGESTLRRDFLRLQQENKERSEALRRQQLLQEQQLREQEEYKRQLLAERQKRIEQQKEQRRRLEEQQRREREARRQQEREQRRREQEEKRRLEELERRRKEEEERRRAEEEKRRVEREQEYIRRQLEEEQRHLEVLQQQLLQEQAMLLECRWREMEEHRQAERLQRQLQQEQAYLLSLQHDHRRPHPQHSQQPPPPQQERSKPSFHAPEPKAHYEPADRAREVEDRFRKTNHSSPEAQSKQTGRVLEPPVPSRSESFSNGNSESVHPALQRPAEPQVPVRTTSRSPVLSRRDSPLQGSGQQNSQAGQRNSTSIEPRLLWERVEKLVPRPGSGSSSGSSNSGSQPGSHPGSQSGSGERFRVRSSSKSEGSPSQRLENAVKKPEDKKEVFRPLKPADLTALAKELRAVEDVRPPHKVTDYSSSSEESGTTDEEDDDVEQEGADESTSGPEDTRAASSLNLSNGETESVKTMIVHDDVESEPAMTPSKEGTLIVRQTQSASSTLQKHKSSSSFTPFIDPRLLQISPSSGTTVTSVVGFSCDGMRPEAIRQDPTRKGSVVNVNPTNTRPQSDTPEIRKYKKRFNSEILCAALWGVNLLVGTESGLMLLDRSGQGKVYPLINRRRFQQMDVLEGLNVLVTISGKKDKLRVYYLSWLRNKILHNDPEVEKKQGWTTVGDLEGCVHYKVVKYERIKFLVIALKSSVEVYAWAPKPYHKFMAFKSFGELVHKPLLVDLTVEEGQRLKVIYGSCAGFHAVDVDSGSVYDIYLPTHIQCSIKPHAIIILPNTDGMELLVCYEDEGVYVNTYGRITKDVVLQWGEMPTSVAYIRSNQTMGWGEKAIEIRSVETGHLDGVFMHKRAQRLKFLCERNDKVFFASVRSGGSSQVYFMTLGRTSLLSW
Chain of ProfilerPro Kinase Selectivity Assay Kit kinases (Homo sapiens, UniProt P28482) (P28482 2-360 limits assumed): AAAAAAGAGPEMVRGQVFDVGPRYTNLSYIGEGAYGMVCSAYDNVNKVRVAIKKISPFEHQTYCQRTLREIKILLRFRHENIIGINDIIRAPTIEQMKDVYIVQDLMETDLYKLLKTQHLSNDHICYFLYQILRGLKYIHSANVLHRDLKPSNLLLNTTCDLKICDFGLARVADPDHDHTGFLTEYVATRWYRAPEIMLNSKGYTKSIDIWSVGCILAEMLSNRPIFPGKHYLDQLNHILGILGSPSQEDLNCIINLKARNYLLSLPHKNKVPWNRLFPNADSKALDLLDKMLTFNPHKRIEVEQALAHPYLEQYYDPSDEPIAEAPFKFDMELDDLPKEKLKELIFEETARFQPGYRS
Chain of ProfilerPro Kinase Selectivity Assay Kit kinases (Homo sapiens, UniProt P11362) (P11362 22-822 limits assumed): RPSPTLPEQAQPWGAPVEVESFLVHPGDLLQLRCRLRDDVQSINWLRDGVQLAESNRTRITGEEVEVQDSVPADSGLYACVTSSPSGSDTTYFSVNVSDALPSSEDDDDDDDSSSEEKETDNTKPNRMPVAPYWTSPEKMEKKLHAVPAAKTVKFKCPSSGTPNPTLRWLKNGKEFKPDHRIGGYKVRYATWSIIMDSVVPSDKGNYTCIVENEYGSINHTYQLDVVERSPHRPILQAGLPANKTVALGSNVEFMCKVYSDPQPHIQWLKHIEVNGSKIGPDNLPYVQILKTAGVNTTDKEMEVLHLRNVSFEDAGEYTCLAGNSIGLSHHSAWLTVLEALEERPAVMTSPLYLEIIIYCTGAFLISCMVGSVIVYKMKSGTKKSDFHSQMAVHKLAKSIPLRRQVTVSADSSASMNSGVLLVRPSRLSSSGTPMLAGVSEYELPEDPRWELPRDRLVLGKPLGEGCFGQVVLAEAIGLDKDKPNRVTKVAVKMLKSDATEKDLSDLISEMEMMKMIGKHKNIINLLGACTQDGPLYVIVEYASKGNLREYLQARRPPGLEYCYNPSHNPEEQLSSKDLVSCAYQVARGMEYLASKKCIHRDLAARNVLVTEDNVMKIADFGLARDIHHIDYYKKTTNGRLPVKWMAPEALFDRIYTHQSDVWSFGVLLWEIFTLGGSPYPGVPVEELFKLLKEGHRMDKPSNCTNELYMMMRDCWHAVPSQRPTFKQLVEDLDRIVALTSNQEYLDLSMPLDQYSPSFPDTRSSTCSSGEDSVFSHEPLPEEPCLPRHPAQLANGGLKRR

Compound | POC (Percent of control) SGK1 [1] | POC (Percent of control) AURORA A [2] | POC (Percent of control) ROCK2 [3] | POC (Percent of control) MSK1 [4] | POC (Percent of control) HGK [5] | POC (Percent of control) ABL [6] | POC (Percent of control) cRAF [7] | POC (Percent of control) LCK [8] | POC (Percent of control) FYN [9] | POC (Percent of control) LYN [10] | POC (Percent of control) IGF1R [11] | POC (Percent of control) FGFR1 [12] | POC (Percent of control) PKA alpha [13] | POC (Percent of control) p70S6K [14] | POC (Percent of control) ERK1 [15] | POC (Percent of control) ERK2 [16] | POC (Percent of control) KDR [17] | POC (Percent of control) FLT3 [18] | POC (Percent of control) SYK [19] | POC (Percent of control) CK1 delta [20] | further results
Cc1nc(N)nc(-c2cc(CN3CCN(S(C)(=O)=O)CC3)cnc2Nc2cccc(O)c2)n1 [Example 30, 3-(3-(4-Amino-6-Methyl-1,3,5-Triazin-2-yl)-5-((4-(Methyl Sulfonyl)Piperazin-1-yl)Methyl)Pyridin-2-Ylamino)Phenol] | 93 POC | 100 POC | 98 POC | 90 POC | 96 POC | 98 POC | 95 POC | 102 POC | 97 POC | 100 POC | 80 POC | 99 POC | 100 POC | 97 POC | 93 POC | 102 POC | 102 POC | 99 POC | 106 POC | 95 POC | POC (Percent of control) MAPKAPK2 [21]: 103 POC; POC (Percent of control) BTK [22]: 97 POC; POC (Percent of control) PAK2 [23]: 105 POC; POC (Percent of control) MST2 [24]: 98 POC; POC (Percent of control) DYRK1a [25]: 93 POC; POC (Percent of control) PKGa2 [26]: 98 POC; POC (Percent of control) p38 alpha [27]: 99 POC; POC (Percent of control) CAMK4 [28]: 94 POC; POC (Percent of control) PRAK [29]: 112 POC; POC (Percent of control) AMPK [30]: 91 POC; POC (Percent of control) CAMK2 [30]: 103 POC; POC (Percent of control) PKC beta2 [30]: 94 POC; POC (Percent of control) TAK1 [30]: 99 POC; Mutant B-raf HTRF Assay POC Mean n = 2 [31]: 92% of Control (POC)
Cc1cnc(Nc2cccc3[nH]ccc23)c(-c2nc(C)nc(N)n2)c1 [Example 46, N-(3-(4-Amino-6-Methyl-1,3,5-Triazin-2-yl)-5-Methylpyridin-2-yl)-1H-Indol-4-Amine] | 89 POC | 31 POC | 94 POC | 103 POC | 104 POC | 97 POC | 91 POC | 96 POC | 101 POC | 96 POC | 78 POC | 98 POC | 102 POC | 90 POC | 92 POC | 116 POC | 90 POC | 99 POC | 104 POC | 91 POC | POC (Percent of control) MAPKAPK2 [21]: 98 POC; POC (Percent of control) BTK [22]: 98 POC; POC (Percent of control) PAK2 [23]: 95 POC; POC (Percent of control) MST2 [24]: 96 POC; POC (Percent of control) DYRK1a [25]: 96 POC; POC (Percent of control) PKGa2 [26]: 95 POC; POC (Percent of control) p38 alpha [27]: 96 POC; POC (Percent of control) CAMK4 [28]: 96 POC; POC (Percent of control) PRAK [29]: 111 POC; POC (Percent of control) AMPK [30]: 91 POC; POC (Percent of control) CAMK2 [30]: 105 POC; POC (Percent of control) PKC beta2 [30]: 96 POC; POC (Percent of control) TAK1 [30]: 98 POC; Mutant B-raf HTRF Assay POC Mean n = 2 [31]: 68% of Control (POC)
Cc1cnc(Nc2cccc3[nH]ncc23)c(-c2nc(C)nc(N)n2)c1 [Example 47, N-(3-(4-Amino-6-Methyl-1,3,5-Triazin-2-yl)-5-Methylpyridine-2-yl)-1H-Indazol-4-Amine] | 89 POC | 85 POC | 93 POC | 76 POC | 91 POC | 81 POC | 56 POC | 61 POC | 87 POC | 55 POC | 82 POC | 94 POC | 16 POC | 60 POC | 103 POC | 104 POC | 86 POC | 89 POC | 95 POC | 69 POC | POC (Percent of control) MAPKAPK2 [21]: 101 POC; POC (Percent of control) BTK [22]: 93 POC; POC (Percent of control) PAK2 [23]: 99 POC; POC (Percent of control) MST2 [24]: 101 POC; POC (Percent of control) DYRK1a [25]: 82 POC; POC (Percent of control) PKGa2 [26]: 80 POC; POC (Percent of control) p38 alpha [27]: 91 POC; POC (Percent of control) CAMK4 [28]: 91 POC; POC (Percent of control) PRAK [29]: 103 POC; POC (Percent of control) AMPK [30]: 87 POC; POC (Percent of control) CAMK2 [30]: 126 POC; POC (Percent of control) PKC beta2 [30]: 100 POC; POC (Percent of control) TAK1 [30]: 106 POC; Mutant B-raf HTRF Assay POC Mean n = 2 [31]: 91% of Control (POC)
